For data set [1], the system named is tobacco cutworm. As to the kind of experiment: Test 2: Tobacco Cutworm Larva Dipping Test, mortality after 24 hours. The class given is in vivo. Particulars: 24 hours. Summed up:
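Second- and fifth-instar larvae dipped 5 s in a water dilution of an emulsifiable concentrate at 100 or 20 ppm, blotted, then held on artificial diet at 25° C. Dead and living larvae counted after 24 hours; mortality averaged over three cups.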

Data set [2] has as its system sensitive green rice leafhopper (collected at Chigasaki). As to the kind of experiment: whole plant or invertebrate. To be noted: Nephotettix cincticeps, sensitive female adults, 24 hours, read-out: Mortality (%), Green Rice Leafhopper Collected at Chigasaki. The format is in vivo. Summed up:
(§1)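 Ten adult females per pot, either resistant (Nakagawara) or sensitive (Chigasaki), were caged on air-dried rice seedlings (2–3 leaves) sprayed at 3 ml/pot with 100 or 20 ppm of an emulsifiable concentrate dilution. Dead and living insects were counted after 24 hours; mortality is the mean of three pots.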

The nature of data set [3]: Test 9: Toxicity Test (acute oral toxicity, mice). Particulars: mouse, in vivo, po. As for the experimental part:
(§2) A predetermined amount of a solution or suspension of a test compound in corn oil was orally administered to male mice having a body weight of 19 to 23 g (0.2 ml per 10 g of the body weight). After 7 days, the number of killed mice was counted and the influences on the mice were examined.

Data set [4] has as its system tobacco cutworm. As to the kind of experiment: Test 1: Effect on Tobacco Cutworm (leaf immersion), mortality after 24 hours. The class given is in vivo. Particulars: second-instar larvae, 25° C. Summed up:
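Second-instar tobacco cutworm larvae were kept at 25 °C on air-dried sweet-potato leaves that had been immersed for 10 s in test dilutions of 100 or 20 ppm from an emulsifiable concentrate. Mortality was scored at 24 h as the mean of three cups.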

Data set [5] relates to German cockroach. As to the kind of experiment: Test 7: Effect on German Cockroach. The class given is in vivo. To be noted: Blattella germanica, male adults, agonized and killed after 24 hours, read-out: Mortality (%); for mortality at 10 mg/m2: 10 mg/m^2; for mortality at 50 mg/m2: 50 mg/m^2. In short, it runs like this: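 Petri dish floors were treated with 50 or 10 mg/m2 of compound (diluted emulsifiable concentrate) and air-dried. Ten male adult German cockroaches per dish were held at 25° C. Agonized and dead insects were counted after 24 hours, averaging two dishes.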

Data set [6] relates to green peach aphid. As to the kind of experiment: Test 5: Effect on Green Peach Aphid. The format is in vivo. Particulars: Myzus persicae; 100 ppm; mortality class; 24 hours; read-out: Insecticidal Activity. In short, it runs like this: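 Eggplant seedlings with 3–4 leaves were infested with aphids and sprayed with a 100 ppm aqueous dilution of an emulsifiable concentrate, then kept in a glasshouse. Living insects were counted after 24 h. Mortality is averaged over three pots and graded A (>95%), B (80–95%), C (50–80%) or D (<50%).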

Data set [7] is described as follows: Test 8: Fish Toxicity. The class given is in vivo. Particulars: carp, water; concentration at which 1/2 of the test fishes were killed within 48 hours; read-out: Fish Toxicity, TLm48. As for the experimental part: A water tank having a width of 60 cm, a length of 30 cm and a height of 40 cm was filled with water, and 10 yearling carps having a body length of about 5 cm were set free in the tank and adapted to the environment in the tank. A test compound was applied so that the concentration in water was 10, 1 or 0.1 ppm. After 48 hours, the numbers of killed and living carps were counted and the influences on the fishes were examined.

The test system of data set [8] is resistant green rice leafhopper (collected at Nakagawara). Nature of the data set: Test 3: Effect on Resistant Green Rice Leafhopper (collected at Nakagawara). The class given is in vivo, Nephotettix cincticeps Uhler (Green rice leafhopper). Particulars: Nephotettix cincticeps, 24 h, read-out: Mortality (%), Green Rice Leafhopper Collected at Nakagawara. Summed up:
as §1

For data set [9], the system named is two-spotted spider mite. As to the kind of experiment: Test 6: Effect on Two-Spotted Spider mite Adults. The format is in vivo. Particulars: 100 ppm, adults, 24 hours, 25° C; for mortality at 100 ppm: Tetranychus urticae, read-out: Mortality (%).
Data set [10] has as its system diamond back moth. As to the kind of experiment: Test 4: Effect on Diamond Back Moth. The format is in vivo. To be noted: Plutella, third-instar larvae, 24 hours, read-out: Mortality (%). In short, it runs like this:
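Compound formulated as an emulsifiable concentrate, diluted in water to 100 or 20 ppm and sprayed at 3 ml per cup onto cabbage leaves holding 10 third-instar larvae. Mortality counted after 24 hours; mean of three cups.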

Data set [11] has as its system plants of Solanacede. To be noted: Fenvalerate; general statement; cited from earlier work.
Data set [12] has as its system male mice. Nature of the data set: Test 9: Toxicity Test (acute oral toxicity, mice). Particulars: oral; corn oil; male mice; 7 days. As for the experimental part:
as §2

[13] abbreviates: fifth-instar larvae, read-out: Motality (%), Fifth-Instar Larvae.
Where [14] appears, read: second-instar larvae, read-out: Motality (%), Second-Instar Larvae.

We go through eight compounds from US4570005A, “Process for the preparation of 2-arylpropyl ether or thioether derivatives” (priority 1980, dated 1986).

Converted amounts (≈) assume the structure as drawn.

A word on the LD50: it is the dose expected to kill half of the subjects tested. Read a low LD50 as a more toxic substance. For the compound `CC(C)(COCc1cccc(Oc2ccc(F)cc2)c1)c1ccc(Cl)cc1` [Compound 6, 3-(4-Fluorophenoxy)benzyl 2-(4-chlorophenyl)-2-methylpropyl ether], the mortality at 20 ppm in data set [1] (setting [13]), in data set [1] (setting [14]), in data set [2], in data set [4], in data set [8] and in data set [10] was 100% throughout. Moreover, the mortality at 100 ppm was 100% in data set [1] (setting [13]); 100% in [1] (setting [14]); 100% in [2]; 100% in [4]; above 95% in data set [6]; 100% in data set [8]. The mortality at 100 ppm in [9] and in data set [10] was 100% in each case. This compound displayed an LD50 at 168 h in data set [3] above 500 mg/kg. The mortality at 10 mg/m2 in data set [5] was 100%. Further, the mortality at 50 mg/m2 in [5] was determined as 100%. Also, the LC50 at 48 h in [7] is above 10 µg/mL.

On to `CC(C)(COCc1cccc(Oc2ccccc2)c1)c1ccc2c(c1)OCO2` [Compound 7, 3-Phenoxybenzyl 2-(3,4-methylenedioxyphenyl)-2-methylpropyl ether], for which the mortality at 20 ppm in data set [1] (setting [13]) came out at 50%; in [1] (setting [14]), 60%; in data set [2], 90%; in data set [4], 80%; in data set [8], 100%; in data set [10] it was 80%. In addition, the mortality at 100 ppm in data set [1] (setting [13]) was 100%; in data set [1] (setting [14]), 100%; in [2] it was 100%; in data set [4], 100%; in data set [6] it was above 95%; in data set [8], 100%. Moreover, the mortality at 100 ppm in data set [9] and in [10] was 100% throughout. The compound further yielded a 50% lethal dose (LD50) at 168 h in data set [3] above 500 mg/kg. Also, the mortality at 10 mg/m2 in data set [5] came to 100%. For the same compound, the mortality at 50 mg/m2 in [5] was determined as 100%. The LC50 at 48 h in data set [7] is above 10 µg/mL.

Take `CC(C)(COCc1cccc(Oc2ccc(F)cc2)c1)c1ccc(OC(F)F)cc1` [Compound 11, 3-(4-Fluorophenoxy)benzyl 2-(4-difluoromethoxyphenyl)-2-methylpropyl ether]: the mortality at 20 ppm in [1] (setting [13]) amounted to 70%; in [1] (setting [14]), 90%; in [2], 100%; in [4] it was 100%; in data set [8] it was 100%; in data set [10] it was 90%. The mortality at 100 ppm in [1] (setting [13]) was 100%; in data set [1] (setting [14]) it was 100%; in [2] it was 100%; in data set [4], 100%; in data set [6], above 95%; in data set [8] it was 100%. Besides, the mortality at 100 ppm in [9] and in data set [10] was 100% throughout. In addition, the LD50 at 168 h in data set [3] is above 500 mg/kg. Besides, the mortality at 10 mg/m2 in [5] turned out to be 100%. For the same compound, the mortality at 50 mg/m2 in [5] worked out at 100%. Besides, the LC50 at 48 h in data set [7] fell in the range of 0.01 to 0.05 µg/mL (≈ 0.024 to 0.12 µM).

As to `CC(C)(COCc1cccc(Oc2ccccc2)c1)c1ccc(Cl)c(Cl)c1` [Compound 48, 3-Phenoxybenzyl 2-(3,4-dichlorophenyl)-2-methylpropyl ether], the mortality at 20 ppm was 60% in data set [1] (setting [13]); 70% in [1] (setting [14]); 100% in data set [2]; 80% in [4]; 100% in data set [8]; 100% in data set [10]. The mortality at 100 ppm in data set [1] (setting [13]) was 70%; in data set [1] (setting [14]), 90%; in data set [2], 100%; in data set [4] it was 100%; in data set [6], above 95%; in [8], 100%. For the same compound, the mortality at 100 ppm in data set [9] and in [10] was 100% throughout. The same compound displayed an LD50 at 168 h in [3] above 500 mg/kg. For the same compound, in [5], the mortality at 10 mg/m2 came to 100%. Besides, in [5], the mortality at 50 mg/m2 was determined as 100%. Also, in data set [7], the LC50 at 48 h was above 10 µg/mL.

With `CC(C)(COCc1cccc(Oc2ccccc2)c1)c1ccc(Cl)cc1` [Compound 49, 3-Phenoxybenzyl 2-(4-chlorophenyl)-2-methylpropyl ether], the mortality at 20 ppm in data set [1] (setting [13]), in data set [1] (setting [14]), in [2], in data set [4], in [8] and in data set [10] was 100% in each case. In addition, the mortality at 100 ppm is 100% in [1] (setting [13]); 100% in [1] (setting [14]); 100% in [2]; 100% in data set [4]; above 95% in data set [6]; 100% in [8]. The mortality at 100 ppm in data set [9] and in [10] was 100% each time. Moreover, in data set [3], the LD50 at 168 h was above 500 mg/kg. Further, the mortality at 10 mg/m2 in data set [5] was found to be 100%. Moreover, the mortality at 50 mg/m2 in [5] came out at 100%. The LC50 at 48 h in [7] was above 10 µg/mL.

As to `CCC(C)(COCc1cccc(Oc2ccccc2)c1)c1ccc(Cl)cc1` (stereo not drawn) [Compound 50, 3-Phenoxybenzyl 2-(4-chlorophenyl)-2-ethylpropyl ether], the mortality at 20 ppm was 90% in data set [1] (setting [13]); 100% in data set [1] (setting [14]); 80% in data set [2]; 100% in data set [4]; 90% in data set [8]; 100% in [10]. For the same compound, the mortality at 100 ppm in [1] (setting [13]) is 100%; in data set [1] (setting [14]), 100%; in [2] it was 100%; in data set [4] it was 100%; in data set [6], above 95%; in data set [8], 100%. The mortality at 100 ppm in data set [9] and in [10] was 100% throughout. This compound had a median lethal dose (LD50) at 168 h in [3] above 500 mg/kg. Besides, in [5], the mortality at 10 mg/m2 amounted to 100%. The mortality at 50 mg/m2 in data set [5] came out at 100%. Moreover, the LC50 at 48 h in data set [7] was above 10 µg/mL.

For the compound `CC(C)C(C(=O)OC(C#N)c1cccc(Oc2ccccc2)c1)c1ccc(Cl)cc1` (stereo not drawn) [Fenvalerate], the “phyto-toxicity to plants of Solanacede” value in [11] is recorded as “observed”.

On to “Pyrethrin [Comparative Compound (c), reference compound]”, for which the “Acute Toxicity at Oral Administration, LD-50” value in [12] was 340 mg/kg. For the same compound, in data set [9], the “Mortality (%)” value amounted to 0%.
